For this assay, the system named is rat and human α9α10 nAChRs. Description: ACh-evoked currents in Xenopus oocytes expressing rat or human α9α10 nAChRs. The class given is cell-based. The note with it: 100 µM ACh.

Turning to `CC(=O)OCC[N+](C)(C)C` [ACh, Acetylcholine chloride], the “ACh-evoked current, rat vs human α9α10 (in words)” value is “generally evoked larger currents in Xenopus oocytes expressing rat α9α10 nAChRs than in oocytes expressing human α9α10 nAChRs”.

For the origin of these results see paper PMC3433650 (Journal of neurochemistry, 2012).
